Laboratory results published in BindingDB's records for doi:10.1124/jpet.105.097303 (Temple University, 2006).

Assays:
[1] = target: T1, 1-phosphatidylinositol 4,5-bisphosphate phosphodiesterase beta-1 (Rattus norvegicus, UniProt P10687)
T1 sequence (P10687 whole entry): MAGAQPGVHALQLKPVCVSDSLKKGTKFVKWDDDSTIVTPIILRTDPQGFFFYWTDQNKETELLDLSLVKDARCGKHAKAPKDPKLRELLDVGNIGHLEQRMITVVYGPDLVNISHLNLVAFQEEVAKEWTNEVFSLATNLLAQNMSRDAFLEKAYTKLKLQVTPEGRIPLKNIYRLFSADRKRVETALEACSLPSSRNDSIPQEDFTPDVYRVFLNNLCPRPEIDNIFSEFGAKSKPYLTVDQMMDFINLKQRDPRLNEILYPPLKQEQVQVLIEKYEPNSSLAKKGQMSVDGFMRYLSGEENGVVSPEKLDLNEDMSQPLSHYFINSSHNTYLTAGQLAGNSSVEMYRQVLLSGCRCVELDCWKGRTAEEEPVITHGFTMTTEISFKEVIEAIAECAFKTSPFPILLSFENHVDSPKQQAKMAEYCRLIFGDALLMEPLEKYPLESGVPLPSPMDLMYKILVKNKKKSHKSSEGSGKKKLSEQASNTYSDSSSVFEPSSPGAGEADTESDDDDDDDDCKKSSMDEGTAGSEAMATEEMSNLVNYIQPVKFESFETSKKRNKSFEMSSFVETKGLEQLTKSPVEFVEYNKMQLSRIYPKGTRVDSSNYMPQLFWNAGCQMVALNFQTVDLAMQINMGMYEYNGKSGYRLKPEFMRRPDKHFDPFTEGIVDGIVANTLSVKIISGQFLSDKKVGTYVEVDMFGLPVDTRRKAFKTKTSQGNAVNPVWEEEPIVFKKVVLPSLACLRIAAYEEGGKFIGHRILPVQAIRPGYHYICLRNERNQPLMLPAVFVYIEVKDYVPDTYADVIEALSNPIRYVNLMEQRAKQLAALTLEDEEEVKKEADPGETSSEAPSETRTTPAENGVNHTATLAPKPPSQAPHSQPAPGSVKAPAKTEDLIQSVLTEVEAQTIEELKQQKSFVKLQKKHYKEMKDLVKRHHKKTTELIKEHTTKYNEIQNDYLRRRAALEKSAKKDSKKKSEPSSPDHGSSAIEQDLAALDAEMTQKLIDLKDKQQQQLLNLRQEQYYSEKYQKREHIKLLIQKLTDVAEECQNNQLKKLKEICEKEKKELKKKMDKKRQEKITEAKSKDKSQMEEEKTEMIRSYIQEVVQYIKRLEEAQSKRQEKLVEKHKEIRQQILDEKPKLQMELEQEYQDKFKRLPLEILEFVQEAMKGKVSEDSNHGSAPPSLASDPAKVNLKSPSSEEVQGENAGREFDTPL

[2] = target: T2, 1-phosphatidylinositol 4,5-bisphosphate phosphodiesterase delta-4 (Rattus norvegicus, UniProt Q62711)
T2 sequence (Q62711 whole entry): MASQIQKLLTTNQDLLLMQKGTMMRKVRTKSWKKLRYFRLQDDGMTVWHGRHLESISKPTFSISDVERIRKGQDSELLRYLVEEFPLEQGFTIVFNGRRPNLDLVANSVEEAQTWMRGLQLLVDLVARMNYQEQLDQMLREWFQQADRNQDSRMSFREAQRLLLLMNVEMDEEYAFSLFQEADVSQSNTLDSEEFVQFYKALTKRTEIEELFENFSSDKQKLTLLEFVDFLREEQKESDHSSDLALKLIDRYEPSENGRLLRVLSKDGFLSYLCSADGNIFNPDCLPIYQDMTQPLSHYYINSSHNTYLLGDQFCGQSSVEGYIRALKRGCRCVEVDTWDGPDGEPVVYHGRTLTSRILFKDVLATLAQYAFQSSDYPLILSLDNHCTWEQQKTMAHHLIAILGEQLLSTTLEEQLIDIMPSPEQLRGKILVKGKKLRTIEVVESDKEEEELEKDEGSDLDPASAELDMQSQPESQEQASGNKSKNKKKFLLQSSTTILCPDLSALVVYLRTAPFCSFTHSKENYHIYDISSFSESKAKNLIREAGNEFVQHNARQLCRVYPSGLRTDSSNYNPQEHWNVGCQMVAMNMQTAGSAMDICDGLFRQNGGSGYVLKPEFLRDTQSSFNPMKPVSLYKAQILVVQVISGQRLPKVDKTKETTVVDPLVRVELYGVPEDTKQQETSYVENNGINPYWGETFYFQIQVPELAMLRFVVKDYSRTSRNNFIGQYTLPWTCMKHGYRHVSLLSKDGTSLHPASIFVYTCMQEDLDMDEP

[3] = target: Protein kinase C alpha type (Rattus norvegicus, UniProt P05696)
[4] = target: Rho-associated protein kinase 2 (Rattus norvegicus, UniProt Q62868)
[5] = target: T3, cGMP-dependent protein kinase 1 (Homo sapiens, UniProt Q13976)
T3 sequence (Q13976 whole entry): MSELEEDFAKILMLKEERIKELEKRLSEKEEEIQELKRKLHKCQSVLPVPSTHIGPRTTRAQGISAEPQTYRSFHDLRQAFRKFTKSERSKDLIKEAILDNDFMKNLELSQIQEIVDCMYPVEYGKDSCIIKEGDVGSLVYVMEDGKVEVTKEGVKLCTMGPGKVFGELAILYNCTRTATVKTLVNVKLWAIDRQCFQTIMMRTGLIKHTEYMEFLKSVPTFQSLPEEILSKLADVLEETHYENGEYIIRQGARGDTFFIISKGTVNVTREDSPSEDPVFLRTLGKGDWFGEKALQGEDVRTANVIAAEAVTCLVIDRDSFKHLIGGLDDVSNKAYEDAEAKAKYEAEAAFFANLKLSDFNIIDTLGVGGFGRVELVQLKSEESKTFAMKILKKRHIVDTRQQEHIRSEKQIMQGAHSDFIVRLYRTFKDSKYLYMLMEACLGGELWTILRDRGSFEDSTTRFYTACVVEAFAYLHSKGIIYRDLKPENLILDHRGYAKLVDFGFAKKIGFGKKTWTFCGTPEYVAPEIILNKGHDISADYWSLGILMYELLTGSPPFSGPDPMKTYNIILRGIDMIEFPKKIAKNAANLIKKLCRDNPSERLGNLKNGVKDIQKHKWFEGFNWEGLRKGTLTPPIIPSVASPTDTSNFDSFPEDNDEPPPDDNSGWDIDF

[6] = target: cAMP-dependent protein kinase catalytic subunit beta (Rattus norvegicus, UniProt P68182)

Chain of Rho-associated protein kinase 2 (Q62868 whole entry): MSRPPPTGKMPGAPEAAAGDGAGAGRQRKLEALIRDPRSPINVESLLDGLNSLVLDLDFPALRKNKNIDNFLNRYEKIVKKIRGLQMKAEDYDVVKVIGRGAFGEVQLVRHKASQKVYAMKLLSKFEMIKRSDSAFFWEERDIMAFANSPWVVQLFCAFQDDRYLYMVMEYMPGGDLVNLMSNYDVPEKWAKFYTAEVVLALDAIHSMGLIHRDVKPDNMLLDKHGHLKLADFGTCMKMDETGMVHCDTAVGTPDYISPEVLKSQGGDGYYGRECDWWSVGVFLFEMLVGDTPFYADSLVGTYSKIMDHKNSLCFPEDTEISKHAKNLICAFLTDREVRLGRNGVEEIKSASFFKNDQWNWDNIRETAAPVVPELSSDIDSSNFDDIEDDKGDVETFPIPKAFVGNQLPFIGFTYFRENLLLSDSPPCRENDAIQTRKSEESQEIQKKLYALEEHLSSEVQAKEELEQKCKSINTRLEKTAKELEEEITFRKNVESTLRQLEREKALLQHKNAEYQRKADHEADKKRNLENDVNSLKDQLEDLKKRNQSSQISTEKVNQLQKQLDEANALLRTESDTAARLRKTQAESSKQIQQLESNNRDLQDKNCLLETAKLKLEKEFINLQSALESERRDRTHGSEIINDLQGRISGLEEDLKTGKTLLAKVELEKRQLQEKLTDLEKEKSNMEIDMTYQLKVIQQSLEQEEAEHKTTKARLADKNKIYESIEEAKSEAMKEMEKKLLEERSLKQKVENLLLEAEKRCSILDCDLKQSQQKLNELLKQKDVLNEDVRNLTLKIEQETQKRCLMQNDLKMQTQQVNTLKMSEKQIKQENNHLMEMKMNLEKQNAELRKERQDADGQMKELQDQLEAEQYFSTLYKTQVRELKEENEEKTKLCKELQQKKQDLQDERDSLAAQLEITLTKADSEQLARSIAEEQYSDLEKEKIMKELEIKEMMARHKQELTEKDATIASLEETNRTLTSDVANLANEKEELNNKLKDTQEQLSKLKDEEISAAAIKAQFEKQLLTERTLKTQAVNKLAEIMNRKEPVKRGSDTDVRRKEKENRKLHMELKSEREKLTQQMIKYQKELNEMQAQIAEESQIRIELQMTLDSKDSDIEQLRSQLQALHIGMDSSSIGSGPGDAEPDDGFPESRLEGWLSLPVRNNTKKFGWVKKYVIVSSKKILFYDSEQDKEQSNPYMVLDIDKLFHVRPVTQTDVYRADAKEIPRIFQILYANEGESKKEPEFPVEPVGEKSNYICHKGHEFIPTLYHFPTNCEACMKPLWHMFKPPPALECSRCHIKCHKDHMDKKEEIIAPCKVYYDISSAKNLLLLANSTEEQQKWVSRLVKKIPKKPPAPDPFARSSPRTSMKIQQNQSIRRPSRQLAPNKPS

SMILES	Ki [1] [µM]	Ki [4] [µM]	Ki [6] [µM]	Ki [3] [µM]	also measured
CCCCCCCCCCCCCCCCCCOC[C@H](COP(=O)([O-])OCC[N+](C)(C)C)OC [CAS_77286-66-9]	5	–	–	–	–
COc1ccc2c(c[n+](C)c3c4cc5c(cc4ccc23)OCO5)c1OC	–	–	–	0.66	–
O=S(=O)(NCCNC/C=C/c1ccc(Br)cc1)c1cccc2cnccc12	–	0.27	0.05	–	Ki [5]: 0.5 µM

The next lines start with results.

Ki [1] [µM]	Ki [4] [µM]	Ki [6] [µM]	SMILES	Ki [3] [µM]	also measured
5	–	–	NC[C@@H]1O[C@H](O[C@H]2[C@@H](O)[C@H](O[C@@H]3[C@@H](O)[C@H](N)C[C@H](N)[C@H]3O[C@H]3O[C@H](CN)[C@@H](O)[C@H](O)[C@H]3N)O[C@@H]2CO)[C@H](N)[C@@H](O)[C@@H]1O [KDR Kinase Inhibitor, 3]	–	Ki [2]: 5 µM
–	0.1	25	C[C@@H](N)[C@H]1CC[C@H](C(=O)Nc2ccncc2)CC1 [Y-27632]	26	–
